Assay results from ChEMBL document CHEMBL4507291 (2021).

Key:
[1] = target: Histamine H2 receptor (Homo sapiens) (UniProt P25021); settings: Compound concentration 10.0 uM
[2] = target: Calcium/calmodulin-dependent protein kinase kinase 1 (Homo sapiens) (UniProt Q8N5S9)
[3] = target: T1, Ephrin type-B receptor 3 (Homo sapiens) (UniProt P54753)
T1 sequence (whole entry): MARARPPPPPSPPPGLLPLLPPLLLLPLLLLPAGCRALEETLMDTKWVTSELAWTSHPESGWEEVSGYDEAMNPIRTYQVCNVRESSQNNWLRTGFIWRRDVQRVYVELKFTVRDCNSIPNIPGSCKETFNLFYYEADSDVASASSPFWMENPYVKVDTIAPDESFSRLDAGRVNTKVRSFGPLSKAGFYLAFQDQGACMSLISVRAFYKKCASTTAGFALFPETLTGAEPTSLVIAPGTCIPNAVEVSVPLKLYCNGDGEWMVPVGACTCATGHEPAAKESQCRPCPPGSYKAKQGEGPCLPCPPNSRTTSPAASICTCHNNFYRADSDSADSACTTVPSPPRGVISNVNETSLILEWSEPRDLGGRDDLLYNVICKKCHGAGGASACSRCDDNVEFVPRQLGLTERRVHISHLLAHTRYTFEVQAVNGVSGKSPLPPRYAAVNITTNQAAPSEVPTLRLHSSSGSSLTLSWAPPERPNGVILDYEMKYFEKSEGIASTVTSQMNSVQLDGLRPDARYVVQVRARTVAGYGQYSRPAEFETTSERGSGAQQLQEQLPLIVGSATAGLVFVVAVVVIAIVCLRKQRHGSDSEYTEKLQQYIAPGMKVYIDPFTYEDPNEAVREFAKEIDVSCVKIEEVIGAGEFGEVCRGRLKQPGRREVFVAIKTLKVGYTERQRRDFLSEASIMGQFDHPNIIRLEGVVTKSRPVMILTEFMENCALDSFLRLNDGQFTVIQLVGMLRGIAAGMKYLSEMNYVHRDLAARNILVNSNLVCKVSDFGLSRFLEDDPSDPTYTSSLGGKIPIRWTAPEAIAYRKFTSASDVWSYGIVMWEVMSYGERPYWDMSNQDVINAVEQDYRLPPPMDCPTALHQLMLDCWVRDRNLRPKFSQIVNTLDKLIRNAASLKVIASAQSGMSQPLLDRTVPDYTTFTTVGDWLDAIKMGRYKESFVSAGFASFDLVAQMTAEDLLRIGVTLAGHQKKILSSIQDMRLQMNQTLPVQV

[4] = target: Dual specificity protein kinase CLK2 (Homo sapiens) (UniProt P49760)
Sequence of Dual specificity protein kinase CLK2 (Homo sapiens) (P49760 whole entry, looked up): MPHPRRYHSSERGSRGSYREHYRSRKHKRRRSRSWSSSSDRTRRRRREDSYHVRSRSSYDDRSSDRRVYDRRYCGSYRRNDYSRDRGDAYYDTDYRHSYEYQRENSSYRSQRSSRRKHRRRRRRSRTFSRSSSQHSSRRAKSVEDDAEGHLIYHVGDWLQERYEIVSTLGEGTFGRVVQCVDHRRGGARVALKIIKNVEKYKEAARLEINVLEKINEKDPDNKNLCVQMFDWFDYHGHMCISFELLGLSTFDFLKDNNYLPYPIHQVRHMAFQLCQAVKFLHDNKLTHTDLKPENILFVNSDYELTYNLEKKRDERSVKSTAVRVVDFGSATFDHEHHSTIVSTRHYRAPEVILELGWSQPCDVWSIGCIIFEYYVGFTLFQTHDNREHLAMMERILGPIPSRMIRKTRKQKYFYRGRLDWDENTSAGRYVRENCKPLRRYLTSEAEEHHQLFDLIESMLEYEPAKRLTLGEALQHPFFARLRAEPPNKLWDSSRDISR

[5] = target: Tyrosine-protein kinase JAK1 (Homo sapiens) (UniProt P23458)
[6] = test system: Epidermal growth factor receptor (Homo sapiens), P00533 [L861Q]
[7] = target: Cyclin-dependent kinase 4 (Homo sapiens) (UniProt P11802)
Sequence of Cyclin-dependent kinase 4 (Homo sapiens) (P11802 whole entry): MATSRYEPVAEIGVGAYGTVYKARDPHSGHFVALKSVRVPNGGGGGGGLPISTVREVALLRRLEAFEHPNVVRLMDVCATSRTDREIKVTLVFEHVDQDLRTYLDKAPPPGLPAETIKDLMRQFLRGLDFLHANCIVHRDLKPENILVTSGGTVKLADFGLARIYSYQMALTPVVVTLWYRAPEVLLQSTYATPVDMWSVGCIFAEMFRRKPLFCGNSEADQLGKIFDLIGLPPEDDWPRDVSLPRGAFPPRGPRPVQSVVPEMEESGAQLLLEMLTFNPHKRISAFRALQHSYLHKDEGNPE

[8] = target: Serine/threonine-protein kinase pim-1 (Homo sapiens) (UniProt P11309)
Sequence of Serine/threonine-protein kinase pim-1 (Homo sapiens) (P11309 whole entry, looked up): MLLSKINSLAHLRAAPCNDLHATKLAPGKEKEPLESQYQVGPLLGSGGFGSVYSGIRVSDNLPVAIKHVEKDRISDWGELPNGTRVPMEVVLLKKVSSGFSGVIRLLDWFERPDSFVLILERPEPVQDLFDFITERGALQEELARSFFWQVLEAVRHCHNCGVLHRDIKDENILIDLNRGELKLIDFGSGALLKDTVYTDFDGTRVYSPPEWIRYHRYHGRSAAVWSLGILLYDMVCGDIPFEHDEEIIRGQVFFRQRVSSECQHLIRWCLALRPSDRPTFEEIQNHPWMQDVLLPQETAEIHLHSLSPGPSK

[9] = target: MAP kinase-activated protein kinase 2 (Homo sapiens) (UniProt P49137)
Sequence of MAP kinase-activated protein kinase 2 (Homo sapiens) (P49137 whole entry, looked up): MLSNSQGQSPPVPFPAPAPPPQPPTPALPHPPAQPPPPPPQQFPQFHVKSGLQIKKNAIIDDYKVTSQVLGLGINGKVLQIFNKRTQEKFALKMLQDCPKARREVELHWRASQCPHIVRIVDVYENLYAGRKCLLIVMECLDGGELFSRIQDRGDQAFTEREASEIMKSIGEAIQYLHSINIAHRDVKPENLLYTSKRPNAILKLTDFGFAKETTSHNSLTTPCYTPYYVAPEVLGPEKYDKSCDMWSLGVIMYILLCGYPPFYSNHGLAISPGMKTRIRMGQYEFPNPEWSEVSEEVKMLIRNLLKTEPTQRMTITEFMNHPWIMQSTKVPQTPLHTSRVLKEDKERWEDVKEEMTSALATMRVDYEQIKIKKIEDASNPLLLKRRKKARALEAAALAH

[10] = target: Interferon-induced, double-stranded RNA-activated protein kinase (Homo sapiens) (UniProt P19525)
Sequence of Interferon-induced, double-stranded RNA-activated protein kinase (Homo sapiens) (P19525 whole entry): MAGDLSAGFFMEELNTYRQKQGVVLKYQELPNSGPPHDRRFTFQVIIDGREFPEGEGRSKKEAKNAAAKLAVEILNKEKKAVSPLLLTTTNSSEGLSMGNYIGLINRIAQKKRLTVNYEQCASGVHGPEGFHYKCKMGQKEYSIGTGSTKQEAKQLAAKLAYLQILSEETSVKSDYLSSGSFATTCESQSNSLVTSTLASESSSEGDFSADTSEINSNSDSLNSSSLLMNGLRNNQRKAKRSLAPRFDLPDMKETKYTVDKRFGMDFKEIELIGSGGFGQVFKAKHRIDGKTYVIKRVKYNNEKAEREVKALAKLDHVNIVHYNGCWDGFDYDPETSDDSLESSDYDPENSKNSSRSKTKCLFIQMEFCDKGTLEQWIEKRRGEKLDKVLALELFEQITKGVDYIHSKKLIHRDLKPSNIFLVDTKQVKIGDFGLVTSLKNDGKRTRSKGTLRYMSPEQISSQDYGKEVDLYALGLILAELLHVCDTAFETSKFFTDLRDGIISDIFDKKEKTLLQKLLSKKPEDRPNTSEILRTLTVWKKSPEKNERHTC

[11] = target: Macrophage colony-stimulating factor 1 receptor (Homo sapiens) (UniProt P07333)
[12] = target: T2, Tyrosine-protein kinase Mer (Homo sapiens) (UniProt Q12866)
T2 sequence (whole entry): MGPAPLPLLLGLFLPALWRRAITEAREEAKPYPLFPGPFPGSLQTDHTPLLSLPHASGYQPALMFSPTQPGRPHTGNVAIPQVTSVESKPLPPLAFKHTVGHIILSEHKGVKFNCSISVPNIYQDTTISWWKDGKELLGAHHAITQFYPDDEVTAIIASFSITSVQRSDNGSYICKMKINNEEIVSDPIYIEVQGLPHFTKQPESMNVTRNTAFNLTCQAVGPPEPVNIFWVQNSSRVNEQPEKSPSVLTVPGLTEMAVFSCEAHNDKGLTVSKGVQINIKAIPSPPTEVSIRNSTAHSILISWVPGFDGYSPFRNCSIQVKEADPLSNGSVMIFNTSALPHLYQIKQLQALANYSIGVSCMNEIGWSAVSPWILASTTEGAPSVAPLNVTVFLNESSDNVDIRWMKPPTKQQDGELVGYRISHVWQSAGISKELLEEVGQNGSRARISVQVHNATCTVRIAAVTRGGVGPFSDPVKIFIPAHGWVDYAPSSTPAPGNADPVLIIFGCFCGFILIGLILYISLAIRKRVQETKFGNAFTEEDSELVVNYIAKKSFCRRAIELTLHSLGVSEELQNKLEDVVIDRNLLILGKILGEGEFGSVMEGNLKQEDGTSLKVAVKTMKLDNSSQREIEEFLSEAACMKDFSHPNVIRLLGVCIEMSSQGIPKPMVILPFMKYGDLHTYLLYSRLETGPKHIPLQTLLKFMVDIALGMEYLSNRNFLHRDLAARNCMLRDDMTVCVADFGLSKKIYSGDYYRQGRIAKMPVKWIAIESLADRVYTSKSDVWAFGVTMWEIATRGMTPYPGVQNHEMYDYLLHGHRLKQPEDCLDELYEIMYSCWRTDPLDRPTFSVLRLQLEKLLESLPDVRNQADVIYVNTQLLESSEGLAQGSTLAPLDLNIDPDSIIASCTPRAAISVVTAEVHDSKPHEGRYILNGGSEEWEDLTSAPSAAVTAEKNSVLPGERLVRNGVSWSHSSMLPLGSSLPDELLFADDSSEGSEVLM

[13] = target: Beta-2 adrenergic receptor (Homo sapiens) (UniProt P07550); settings: Compound concentration 10.0 uM
Sequence of Beta-2 adrenergic receptor (Homo sapiens) (P07550 whole entry, looked up): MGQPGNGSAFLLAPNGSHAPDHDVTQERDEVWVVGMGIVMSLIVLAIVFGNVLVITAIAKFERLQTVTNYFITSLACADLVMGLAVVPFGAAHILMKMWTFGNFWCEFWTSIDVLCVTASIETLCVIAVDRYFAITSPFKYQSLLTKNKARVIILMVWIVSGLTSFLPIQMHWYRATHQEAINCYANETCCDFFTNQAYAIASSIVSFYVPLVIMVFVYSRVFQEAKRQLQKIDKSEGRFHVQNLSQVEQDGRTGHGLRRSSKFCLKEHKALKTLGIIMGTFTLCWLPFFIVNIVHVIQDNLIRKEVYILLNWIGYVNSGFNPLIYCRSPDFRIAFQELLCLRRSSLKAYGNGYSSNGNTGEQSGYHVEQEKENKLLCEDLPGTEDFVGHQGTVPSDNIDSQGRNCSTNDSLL

[14] = target: Serine/threonine-protein kinase PRP4 homolog (Homo sapiens) (UniProt Q13523)
Sequence of Serine/threonine-protein kinase PRP4 homolog (Homo sapiens) (Q13523 whole entry): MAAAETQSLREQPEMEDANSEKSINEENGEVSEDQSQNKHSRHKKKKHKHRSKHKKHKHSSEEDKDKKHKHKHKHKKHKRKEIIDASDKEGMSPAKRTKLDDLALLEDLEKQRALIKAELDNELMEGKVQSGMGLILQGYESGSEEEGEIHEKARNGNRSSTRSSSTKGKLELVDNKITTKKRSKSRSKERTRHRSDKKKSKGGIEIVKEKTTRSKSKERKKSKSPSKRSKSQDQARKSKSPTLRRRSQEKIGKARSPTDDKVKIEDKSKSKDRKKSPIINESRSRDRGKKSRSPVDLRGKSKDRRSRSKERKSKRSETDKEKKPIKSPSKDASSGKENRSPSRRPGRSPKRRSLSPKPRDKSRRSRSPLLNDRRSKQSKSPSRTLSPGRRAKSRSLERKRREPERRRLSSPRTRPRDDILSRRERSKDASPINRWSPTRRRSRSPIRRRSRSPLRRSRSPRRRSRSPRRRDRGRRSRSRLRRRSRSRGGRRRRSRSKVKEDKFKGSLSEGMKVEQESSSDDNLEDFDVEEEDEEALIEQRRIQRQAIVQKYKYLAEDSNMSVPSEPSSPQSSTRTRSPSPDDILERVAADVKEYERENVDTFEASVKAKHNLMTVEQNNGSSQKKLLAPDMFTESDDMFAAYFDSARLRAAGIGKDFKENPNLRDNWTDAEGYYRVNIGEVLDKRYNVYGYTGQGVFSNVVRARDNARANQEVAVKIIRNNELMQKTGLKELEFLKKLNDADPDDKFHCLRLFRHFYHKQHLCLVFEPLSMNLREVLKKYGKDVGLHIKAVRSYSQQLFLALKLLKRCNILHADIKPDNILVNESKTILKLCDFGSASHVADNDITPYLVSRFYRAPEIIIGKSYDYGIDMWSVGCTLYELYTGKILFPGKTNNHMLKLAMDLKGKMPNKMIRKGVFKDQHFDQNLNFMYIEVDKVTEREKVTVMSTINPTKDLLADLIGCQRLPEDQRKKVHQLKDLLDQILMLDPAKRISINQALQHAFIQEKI

[15] = target: NUAK family SNF1-like kinase 2 (Homo sapiens) (UniProt Q9H093)
Sequence of NUAK family SNF1-like kinase 2 (Homo sapiens) (Q9H093 whole entry): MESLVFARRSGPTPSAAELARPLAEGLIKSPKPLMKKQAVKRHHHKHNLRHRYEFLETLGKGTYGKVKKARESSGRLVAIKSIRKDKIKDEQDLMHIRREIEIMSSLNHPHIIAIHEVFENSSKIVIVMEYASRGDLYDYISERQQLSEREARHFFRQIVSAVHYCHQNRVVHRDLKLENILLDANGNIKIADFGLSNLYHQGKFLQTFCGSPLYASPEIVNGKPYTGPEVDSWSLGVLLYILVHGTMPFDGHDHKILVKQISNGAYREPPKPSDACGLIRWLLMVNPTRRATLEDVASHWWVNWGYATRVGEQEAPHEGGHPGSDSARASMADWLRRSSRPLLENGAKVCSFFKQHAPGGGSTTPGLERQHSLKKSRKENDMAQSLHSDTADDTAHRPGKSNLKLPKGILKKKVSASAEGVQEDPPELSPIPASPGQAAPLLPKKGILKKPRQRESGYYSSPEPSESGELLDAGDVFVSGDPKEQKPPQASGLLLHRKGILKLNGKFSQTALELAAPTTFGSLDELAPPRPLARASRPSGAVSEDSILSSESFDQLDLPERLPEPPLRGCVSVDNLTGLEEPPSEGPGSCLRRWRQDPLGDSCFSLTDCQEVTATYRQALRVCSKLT

[16] = Compound concentration 100.0 nM
[17] = Compound concentration 1000.0 nM

Sequence of Histamine H2 receptor (Homo sapiens) (P25021 whole entry): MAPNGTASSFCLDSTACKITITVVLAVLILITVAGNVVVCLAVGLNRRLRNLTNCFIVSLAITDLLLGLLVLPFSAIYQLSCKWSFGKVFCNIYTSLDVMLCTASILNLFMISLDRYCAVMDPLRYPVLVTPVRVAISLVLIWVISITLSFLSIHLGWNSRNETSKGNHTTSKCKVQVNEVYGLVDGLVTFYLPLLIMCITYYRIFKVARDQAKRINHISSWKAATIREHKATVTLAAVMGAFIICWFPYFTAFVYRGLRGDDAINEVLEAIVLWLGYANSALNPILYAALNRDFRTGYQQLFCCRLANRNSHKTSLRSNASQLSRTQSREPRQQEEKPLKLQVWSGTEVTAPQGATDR
Sequence of Calcium/calmodulin-dependent protein kinase kinase 1 (Homo sapiens) (Q8N5S9 whole entry, looked up): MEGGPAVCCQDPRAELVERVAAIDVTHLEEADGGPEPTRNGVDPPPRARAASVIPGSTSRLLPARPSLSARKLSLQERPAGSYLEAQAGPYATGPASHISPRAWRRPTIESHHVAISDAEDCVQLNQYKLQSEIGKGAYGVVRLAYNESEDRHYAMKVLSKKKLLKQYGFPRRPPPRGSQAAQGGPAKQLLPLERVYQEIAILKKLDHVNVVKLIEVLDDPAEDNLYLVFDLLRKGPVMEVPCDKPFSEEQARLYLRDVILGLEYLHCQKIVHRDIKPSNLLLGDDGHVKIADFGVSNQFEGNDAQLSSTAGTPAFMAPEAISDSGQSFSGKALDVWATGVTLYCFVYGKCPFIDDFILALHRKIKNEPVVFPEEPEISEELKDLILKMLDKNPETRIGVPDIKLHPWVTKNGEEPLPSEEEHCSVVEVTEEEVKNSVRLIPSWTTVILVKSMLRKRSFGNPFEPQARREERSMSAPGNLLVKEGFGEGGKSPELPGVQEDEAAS

C[C@@H]1CN(c2cc(-c3n[nH]c4ccc(OC5(C)CC5)cc34)ncn2)C[C@H](C)O1 [MLi-2]
inactive: inhibition [1] 6.26% | residual activity [2, 16] 100% | residual activity [3, 16] 98% | residual activity [4, 16] 85% | residual activity [5, 16] 88% | residual activity [6, 16] 50% | residual activity [7, 16] 97% | residual activity [8, 16] 100% | residual activity [9, 16] 96% | residual activity [10, 16] 100% | residual activity [11, 16] 84% | residual activity [12, 16] 97% | inhibition [13] 26.4% | residual activity [14, 16] 83% | residual activity [15, 16] 79%

C[C@@H]1CN(c2cc(-c3nn(C)c4ccc(OC5(C)CC5)cc34)ncn2)C[C@H](C)O1 [MLi-2-NC]
inactive: inhibition [1] 18.4% | residual activity [2, 17] 80% | residual activity [3, 17] 100% | residual activity [4, 17] 81% | residual activity [5, 17] 100% | residual activity [6, 17] 83% | residual activity [7, 17] 71% | residual activity [8, 17] 77% | residual activity [9, 17] 93% | residual activity [10, 17] 100% | residual activity [11, 17] 55% | residual activity [12, 17] 83% | inhibition [13] 13.8% | residual activity [14, 17] 100% | residual activity [15, 17] 68%
